EC50 data for 18 compounds are collected here from US11427615B2, “Peptide compound and application thereof, and composition containing peptide compound” (XDCEXPLORER (SHANGHAI) CO., LTD., priority 2017, dated 2022).

pEC50: −log10 of the molar value. Starred links: 1 amine or outer side, 2 acyl side, 3 side chain; linkers in the order of their positions; H or OH if unused. Non-standard residues stand in square brackets, D forms with d. Residues, ends and D or L forms follow the SMILES beside them. X11 = O=C(c1nnc([C@H](Cc2ccccc2)N[*:1])[nH]1)[*:2]; X14 = O=C(c1cnc([C@H](Cc2ccccc2)N[*:1])[nH]1)[*:2]; dPhe(2,4-Cl2) = N[C@H](Cc1ccc(Cl)cc1Cl)C(=O)O; dPhe(3-Cl) = N[C@H](Cc1cccc(Cl)c1)C(=O)O; dPhe(4-Cl) = N[C@H](Cc1ccc(Cl)cc1)C(=O)O; X12 = O=C([C@@H]1Cc2ccccc2N1[*:1])[*:2]; Ala(2-furyl) = N[C@@H](Cc1ccco1)C(=O)O; Phe(4-F) = N[C@@H](Cc1ccc(F)cc1)C(=O)O; Pro(4,4-F2) = O=C(O)[C@@H]1CC(F)(F)CN1; dAla(2-furyl) = N[C@H](Cc1ccco1)C(=O)O; dPhe(4-F) = N[C@H](Cc1ccc(F)cc1)C(=O)O; Arg(Me) = CNC(=N)NCCC[C@H](N)C(=O)O; Hyp = O=C(O)[C@@H]1C[C@@H](O)CN1; Tic = O=C(O)[C@@H]1Cc2ccccc2CN1; 2Thi = N[C@@H](Cc1cccs1)C(=O)O; Pip = O=C(O)[C@@H]1CCCCN1; Ac6c = NC1(C(=O)O)CCCCC1; Aze = O=C(O)[C@@H]1CCN1; azaGly = NNC(=O)O

This experiment deals with T1, human kiss1 receptor (GPR54) (Homo sapiens, UniProt Q969F8).
T1 construct: host or cells: NFAT-bla CHO-K1 cells (Chinese hamster ovary), purchased recombinant cell line
T1 sequence (Q969F8 whole entry): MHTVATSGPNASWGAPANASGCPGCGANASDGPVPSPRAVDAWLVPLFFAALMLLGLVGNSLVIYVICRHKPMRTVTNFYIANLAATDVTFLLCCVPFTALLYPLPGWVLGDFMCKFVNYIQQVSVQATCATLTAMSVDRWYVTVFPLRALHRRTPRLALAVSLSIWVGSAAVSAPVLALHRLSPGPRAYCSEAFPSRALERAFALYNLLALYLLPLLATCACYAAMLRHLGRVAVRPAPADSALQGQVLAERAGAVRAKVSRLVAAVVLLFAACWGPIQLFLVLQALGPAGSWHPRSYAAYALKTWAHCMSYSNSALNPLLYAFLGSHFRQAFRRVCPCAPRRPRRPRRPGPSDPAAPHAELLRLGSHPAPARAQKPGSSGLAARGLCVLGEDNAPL
The experiment is described as follows: Kiss1 receptor (GPR54) binding activity of agonists, FRET detection in NFAT-bla CHO-K1 cells. The class given is cell-based. The following applies: GPR54; measured according to the method of effect Embodiment 1; preliminary data; read-out: Preliminary measurement data (GPR54) EC50.
For `CNC(=N)NCCC[C@H](NC(=O)[C@H](CC(C)C)NC(=O)C1(NC(=O)[C@H](Cc2ccccc2)NC(=O)[C@@H](NC(=O)[C@H](CC(N)=O)NC(=O)[C@@H]2CCCCN2C(=O)[C@H](Cc2ccc(F)cc2)NC(C)=O)[C@@H](C)O)CCCCC1)C(=O)N[C@@H](Cc1c[nH]c2ccccc12)C(N)=O` [YA-202, Ac-Phe(4-F)-(S-Pip)-Asn-Thr-Phe-A6c-Leu-Arg(Me)-Trp-NH2] (Ac-[Phe(4-F)][Pip]NTF[Ac6c]L[Arg(Me)]W-NH2), the negative logarithm of the EC50 (pEC50) (in general, the EC50 on a negative log10 scale, so that one unit is a factor of ten) was 8.02. For `CNC(=N)NCCC[C@H](NC(=O)[C@H](CC(C)C)NC(=O)[C@@H]1CCN1C(=O)[C@H](Cc1ccccc1)NC(=O)[C@H](Cc1ccco1)NC(=O)[C@H](CC(N)=O)NC(=O)[C@@H]1C[C@@H](O)CN1C(=O)[C@@H](Cc1ccc(O)cc1)NC(C)=O)C(=O)N[C@@H](Cc1c[nH]c2ccccc12)C(N)=O` [YA-203, Ac-(D-Tyr)-Hyp-Asn-2Fua-Phe-Aze-Leu-Arg(Me)-Trp-NH2] (Ac-[dY][Hyp]N[Ala(2-furyl)]F[Aze]L[Arg(Me)]W-NH2), the pEC50 is 8.92. The value for `CNC(=N)NCCC[C@H](NC(=O)[C@H](CC(C)C)NC(=O)[C@@H]1CCN1C(=O)[C@H](Cc1ccccc1)NC(=O)[C@H](Cc1ccco1)NC(=O)[C@H](CC(N)=O)NC(=O)[C@H](Cc1cccs1)NC(=O)[C@@H](Cc1ccc(O)cc1)NC(C)=O)C(=O)N[C@@H](Cc1c[nH]c2ccccc12)C(N)=O` [YA-204, Ac-(D-Tyr)-Thi-Asn-2Fua-Phe-Aze-Leu-Arg(Me)-Trp-NH2] (Ac-[dY][2Thi]N[Ala(2-furyl)]F[Aze]L[Arg(Me)]W-NH2) was 8.06; that for `CNC(=N)NCCC[C@H](NC(=O)[C@H](CC(C)C)NC(=O)[C@@H]1CCN1C(=O)[C@H](Cc1ccccc1)NC(=O)[C@H](Cc1ccco1)NC(=O)[C@H](CC(N)=O)NC(=O)[C@@H]1CC(F)(F)CN1C(=O)[C@@H](Cc1ccc(O)cc1)NC(C)=O)C(=O)N[C@@H](Cc1c[nH]c2ccccc12)C(N)=O` [YA-205, Ac-(D-Tyr)-DiFluorPro-Asn-2Fua-Phe-Aze-Leu-Arg(Me)-Trp-NH2] (Ac-[dY][Pro(4,4-F2)]N[Ala(2-furyl)]F[Aze]L[Arg(Me)]W-NH2) was 7.30; that for `CNC(=N)NCCC[C@H](NC(=O)[C@H](CC(C)C)NC(=O)C1(NC(=O)[C@H](Cc2ccccc2)NC(=O)[C@@H](NC(=O)[C@H](CC(N)=O)NC(=O)[C@H](Cc2cccs2)NC(=O)[C@@H](Cc2ccc(Cl)cc2Cl)NC(C)=O)[C@@H](C)O)CCCCC1)C(=O)N[C@@H](Cc1c[nH]c2ccccc12)C(N)=O` [YA-206, Ac-[D-Phe(2,4-DiCl)]-Thi-Asn-Thr-Phe-A6c-Leu-Arg(Me)-Trp-NH2] (Ac-[dPhe(2,4-Cl2)][2Thi]NTF[Ac6c]L[Arg(Me)]W-NH2) was 8.44. With `CNC(=N)NCCC[C@H](NC(=O)[C@H](CC(C)C)NC(=O)C1(NC(=O)[C@H](Cc2ccccc2)NC(=O)[C@@H](NC(=O)[C@H](CC(N)=O)NC(=O)[C@H](Cc2c[nH]c3ccccc23)NC(=O)[C@H](Cc2cccs2)NC(=O)[C@@H](Cc2ccc(Cl)cc2Cl)NC(C)=O)[C@@H](C)O)CCCCC1)C(=O)N[C@@H](Cc1c[nH]c2ccccc12)C(N)=O` [YA-207, Ac-[D-Phe(2,4-DiCl)]-Thi-Trp-Asn-Thr-Phe-A6c-Leu-Arg(Me)-Trp-NH2] (Ac-[dPhe(2,4-Cl2)][2Thi]WNTF[Ac6c]L[Arg(Me)]W-NH2), the negative-log EC50 (pEC50) is 7.05. The value for `CNC(=N)NCCC[C@H](NC(=O)[C@H](CC(C)C)NC(=O)c1cnc([C@H](Cc2ccccc2)NC(=O)[C@@H](NC(=O)[C@H](CC(N)=O)NC(=O)[C@@H]2C[C@@H](O)CN2C(=O)[C@@H](Cc2ccc(O)cc2)NC(C)=O)[C@@H](C)O)[nH]1)C(=O)N[C@@H](Cc1c[nH]c2ccccc12)C(N)=O` [YA-208, Ac-(D-Tyr)-Hyp-Asn-Thr-{(S)-2-(1-amino-2-phenylethyl)-1H-imidazole-5-carboxylic acid}-Leu-Arg(Me)-Trp-NH2] (Ac-[dY][Hyp]NT[X14]L[Arg(Me)]W-NH2) was 8.96; that for `CNC(=N)NCCC[C@H](NC(=O)[C@H](CC(C)C)NC(=O)c1nnc([C@H](Cc2ccccc2)NC(=O)[C@@H](NC(=O)[C@H](CC(N)=O)NC(=O)[C@@H]2C[C@@H](O)CN2C(=O)[C@@H](Cc2ccc(O)cc2)NC(C)=O)[C@@H](C)O)[nH]1)C(=O)N[C@@H](Cc1c[nH]c2ccccc12)C(N)=O` [YA-209, Ac-(D-Tyr)-Hyp-Asn-Thr-{(S)-5-(1-amino-2-phenylethyl)-4H-1,2,4-triazole-3-carboxylic acid}-Leu-Arg(Me)-Trp-NH2] (Ac-[dY][Hyp]NT[X11]L[Arg(Me)]W-NH2) was 8.85; that for `CNC(=N)NCCC[C@H](NC(=O)[C@H](CC(C)C)NC(=O)C1(NC(=O)[C@H](Cc2ccccc2)NC(=O)[C@@H](NC(=O)[C@H](CC(N)=O)NC(=O)[C@@H]2CCCCN2C(=O)[C@@H](Cc2ccc(F)cc2)NC(C)=O)[C@@H](C)O)CCCCC1)C(=O)N[C@@H](Cc1c[nH]c2ccccc12)C(N)=O` [YA-210, Ac-[D-Phe(4-F)]-(S-Pip)-Asn-Thr-Phe-A6c-Leu-Arg(Me)-Trp-NH2] (Ac-[dPhe(4-F)][Pip]NTF[Ac6c]L[Arg(Me)]W-NH2) was 8.83.

On to `CNC(=N)NCCC[C@H](NC(=O)[C@H](CC(C)C)NC(=O)[C@@H]1CCN1C(=O)[C@H](Cc1ccccc1)NC(=O)[C@@H](NC(=O)[C@H](CC(N)=O)NC(=O)[C@@H]1CCCCN1C(=O)[C@@H](Cc1ccc(F)cc1)NC(C)=O)[C@@H](C)O)C(=O)N[C@@H](Cc1c[nH]c2ccccc12)C(N)=O` [YA-211, Ac-[D-Phe(4-F)]-(S-Pip)-Asn-Thr-Phe-Aze-Leu-Arg(Me)-Trp-NH2] (Ac-[dPhe(4-F)][Pip]NTF[Aze]L[Arg(Me)]W-NH2), for which the pEC50 was 8.95. With `CNC(=N)NCCC[C@H](NC(=O)[C@H](CC(C)C)NC(=O)C1(NC(=O)[C@H](Cc2ccccc2)NC(=O)[C@@H](NC(=O)[C@H](CC(N)=O)NC(=O)[C@@H]2CC(F)(F)CN2C(=O)[C@@H](Cc2ccc(F)cc2)NC(C)=O)[C@@H](C)O)CCCCC1)C(=O)N[C@@H](Cc1c[nH]c2ccccc12)C(N)=O` [YA-212, Ac-[D-Phe(4-F)]-Pro(diF)-Asn-Thr-Phe-A6c-Leu-Arg(Me)-Trp-NH2] (Ac-[dPhe(4-F)][Pro(4,4-F2)]NTF[Ac6c]L[Arg(Me)]W-NH2), the pEC50 is 9.30. Consider `CNC(=N)NCCC[C@H](NC(=O)[C@H](CC(C)C)NC(=O)[C@@H]1CCN1C(=O)[C@H](Cc1ccccc1)NC(=O)[C@@H](NC(=O)[C@H](CC(N)=O)NC(=O)[C@@H]1CC(F)(F)CN1C(=O)[C@@H](Cc1ccc(F)cc1)NC(C)=O)[C@@H](C)O)C(=O)N[C@@H](Cc1c[nH]c2ccccc12)C(N)=O` [YA-213, Ac-[D-Phe(4-F)]-Pro(diF)-Asn-Thr-Phe-Aze-Leu-Arg(Me)-Trp-NH2] (Ac-[dPhe(4-F)][Pro(4,4-F2)]NTF[Aze]L[Arg(Me)]W-NH2), for which the negative-log EC50 (pEC50) is 9.40. The value for `CNC(=N)NCCC[C@H](NC(=O)[C@H](CC(C)C)NC(=O)NNC(=O)[C@H](Cc1ccccc1)NC(=O)[C@@H](NC(=O)[C@H](CC(N)=O)NC(=O)[C@@H]1C[C@@H](O)CN1C(=O)[C@@H](Cc1ccc(Cl)cc1)NC(C)=O)[C@@H](C)O)C(=O)N[C@@H](Cc1c[nH]c2ccccc12)C(N)=O` [YA-214, Ac-[D-Phe(4-Cl)]-Hyp-Asn-Thr-Phe-azaGly-Leu-Arg(Me)-Trp-NH2] (Ac-[dPhe(4-Cl)][Hyp]NTF[azaGly]L[Arg(Me)]W-NH2) was 10.08; that for `CNC(=N)NCCC[C@H](NC(=O)[C@H](CC(C)C)NC(=O)NNC(=O)[C@H](Cc1ccccc1)NC(=O)[C@@H](NC(=O)[C@H](CC(N)=O)NC(=O)[C@@H]1C[C@@H](O)CN1C(=O)[C@@H](Cc1cccc(Cl)c1)NC(C)=O)[C@@H](C)O)C(=O)N[C@@H](Cc1c[nH]c2ccccc12)C(N)=O` [YA-215, Ac-[D-Phe(3-Cl)]-Hyp-Asn-Thr-Phe-azaGly-Leu-Arg(Me)-Trp-NH2] (Ac-[dPhe(3-Cl)][Hyp]NTF[azaGly]L[Arg(Me)]W-NH2) was 9.91; that for `CNC(=N)NCCC[C@H](NC(=O)[C@H](CC(C)C)NC(=O)[C@@H]1Cc2ccccc2N1C(=O)[C@H](Cc1ccccc1)NC(=O)[C@@H](NC(=O)[C@H](CC(N)=O)NC(=O)[C@@H]1C[C@@H](O)CN1C(=O)[C@@H](Cc1ccc(O)cc1)NC(C)=O)[C@@H](C)O)C(=O)N[C@@H](Cc1c[nH]c2ccccc12)C(N)=O` [YA-221, Ac-D-Tyr-Hyp-Asn-Thr-Phe-Ind-Leu-Arg(Me)-Trp-NH2] (Ac-[dY][Hyp]NTF[X12]L[Arg(Me)]W-NH2) was 9.19. For `CNC(=N)NCCC[C@H](NC(=O)[C@H](CC(C)C)NC(=O)[C@@H]1Cc2ccccc2N1C(=O)[C@H](Cc1ccccc1)NC(=O)[C@@H](NC(=O)[C@H](CC(N)=O)NC(=O)[C@@H]1CC(F)(F)CN1C(=O)[C@@H](Cc1ccco1)NC(C)=O)[C@@H](C)O)C(=O)N[C@@H](Cc1c[nH]c2ccccc12)C(N)=O` [YA-223, Ac-[3-(2-furyl)-D-Ala]-DifluoroPro-Asn-Thr-Phe-Ind-Leu-Arg(Me)-Trp-NH2] (Ac-[dAla(2-furyl)][Pro(4,4-F2)]NTF[X12]L[Arg(Me)]W-NH2), the pEC50 was 8.36. The value for `CNC(=N)NCCC[C@H](NC(=O)[C@H](CC(C)C)NC(=O)C1(NC(=O)[C@H](Cc2ccccc2)NC(=O)[C@@H](NC(=O)[C@H](CC(N)=O)NC(=O)[C@@H]2CC(F)(F)CN2C(=O)[C@@H](Cc2ccco2)NC(C)=O)[C@@H](C)O)CCCCC1)C(=O)N1Cc2ccccc2C[C@H]1C(N)=O` [YA-224, Ac-[3-(2-furyl)-D-Ala]-DifluoroPro-Asn-Thr-Phe-A6C-Leu-Arg(Me)-Tic-NH2] (Ac-[dAla(2-furyl)][Pro(4,4-F2)]NTF[Ac6c]L[Arg(Me)][Tic]-NH2) was 8.19. The value for `CNC(=N)NCCC[C@H](NC(=O)[C@H](CC(C)C)NC(=O)[C@@H]1CCCCN1C(=O)[C@H](Cc1ccccc1)NC(=O)[C@@H](NC(=O)[C@H](CC(N)=O)NC(=O)[C@@H]1C[C@@H](O)CN1C(=O)[C@@H](Cc1ccc(O)cc1)NC(C)=O)[C@@H](C)O)C(=O)N[C@@H](Cc1c[nH]c2ccccc12)C(N)=O` [YA-226, Ac-(D-Tyr)-Hyp-Asn-Thr-Phe-(S-Pip)-Leu-Arg(Me)-Trp-NH2] (Ac-[dY][Hyp]NTF[Pip]L[Arg(Me)]W-NH2) was 8.10.
